ChEMBL document CHEMBL4814012, “Synthesis and structure-activity relationships of 5-phenyloxazole-2-carboxylic acid derivatives as novel inhibitors of tubulin polymerization” (Bioorg Med Chem Lett, 2021)

Assays:
HeLa = assay: Cytotoxicity against human HeLa cells assessed as reduction in cell growth by CCK8 assay; type: functional, cell-based
A549 [1] = assay: Cytotoxicity against human A549 cells assessed as reduction in cell growth by CCK8 assay; type: functional, cell-based
HepG2 = assay: Cytotoxicity against human HepG2 cells assessed as reduction in cell growth by CCK8 assay; type: functional, cell-based
BEAS-2B = assay: Cytotoxicity against human BEAS-2B cells assessed as reduction in cell growth by CCK8 assay; type: cell-based
[2] = Selectivity ratio of IC50 for human BEAS-2B cells to IC50 for human A549 cells; type: toxicity; conditions: BEAS-2B cells versus A549 cells, read-out: Ratio IC50
Tubulin (Homo sapiens) [3] = target: T1, Tubulin (Homo sapiens) (UniProt P68371+Q9H4B7+P0DPH7+P68366+Q13509+Q71U36+P04350+Q3ZCM7+P07437+P68363+Q9BQE3+Q6PEY2+Q13885+Q9BVA1+Q9BUF5); assay: Inhibition of tubulin polymerization (unknown origin) at 40 uM measured every 30 secs for 90 mins relative to control; type: protein-complex assay
Tubulin = assay: (§1) Inhibition of tubulin polymerization (unknown origin) measured every 30 secs for 90 mins; type: protein-complex assay, Homo sapiens
Tubulin (Homo sapiens) [4] = target: T1, Tubulin (Homo sapiens); assay: as §1; type: protein-complex assay
A549 [5] = assay: Induction of cell cycle arrest in human A549 cells assessed as accumulation at G2/M phase at 1 uM after 24 hrs by flow cytometric analysis (reference value: 14.08%); type: functional
A549 [6] = assay: Induction of cell cycle arrest in human A549 cells assessed as accumulation at G1 phase at 1 uM after 24 hrs by flow cytometric analysis (reference value: 70.48%); type: functional
A549 [7] = assay: Induction of cell cycle arrest in human A549 cells assessed as accumulation at S phase at 1 uM after 24 hrs by flow cytometric analysis (reference value: 15.44%); type: functional

Structure (SMILES)	IC50 (HeLa)	IC50 (A549 [1])	IC50 (HepG2)	further results
COc1ccc(C(=O)c2ncc(-c3ccc(OC)cc3)o2)cc1	> 30 µM	> 30 µM	> 30 µM	–
COc1cc(-c2cnc(C(=O)Nc3ccccc3)o2)cc(OC)c1OC	27.3 µM	> 30 µM	> 30 µM	–
COc1cc(-c2cnc(C(=O)Nc3ccc(O)cc3)o2)cc(OC)c1OC	> 30 µM	> 30 µM	> 30 µM	–
COc1ccc(-c2cnc(C(=O)Nc3ccc(O)cc3)o2)cc1F	1.12 µM	1.2 µM	1.81 µM	IC50 (BEAS-2B): 2.6 µM; selectivity ratio [2]: 2.17; inhibition (Tubulin (Homo sapiens) [3]): 46%; IC50 (Tubulin): > 40 µM
COc1ccc(-c2cnc(C(=O)c3ccccc3)o2)cc1	> 30 µM	> 30 µM	> 30 µM	–
O=C(Nc1ccc(O)cc1)c1ncc(-c2ccccc2)o1	0.78 µM	1.08 µM	1.27 µM	IC50 (BEAS-2B): 3.36 µM; selectivity ratio [2]: 3.11; inhibition (Tubulin (Homo sapiens) [3]): 91%; inhibition (Tubulin (Homo sapiens) [4]): Dose-Dependent Effect; IC50 (Tubulin): 16.7 µM; Activity (A549 [5]): 85.81%; Activity (A549 [6]): 1.14%; Activity (A549 [7]): 13.05%
COc1ccc(NC(=O)c2ncc(-c3cc(OC)c(OC)c(OC)c3)o2)cc1	20.5 µM	25.8 µM	> 30 µM	–
COc1cc(-c2cnc(C(=O)c3ccccc3)o2)cc(OC)c1OC	> 30 µM	> 30 µM	> 30 µM	–
COc1cc(C(=O)c2ncc(-c3ccccc3)o2)cc(OC)c1OC	> 30 µM	> 30 µM	> 30 µM	–
CCN(CC)c1ccc(NC(=O)c2ncc(-c3ccccc3)o2)cc1	> 30 µM	> 30 µM	> 30 µM	–
COc1ccc(-c2cnc(C(=O)Nc3ccc(O)cc3)o2)cc1	1.44 µM	1.93 µM	2.76 µM	IC50 (BEAS-2B): 4.58 µM; selectivity ratio [2]: 2.37; inhibition (Tubulin (Homo sapiens) [3]): 27%; IC50 (Tubulin): > 40 µM
O=C(c1ccc(O)cc1)c1ncc(-c2ccccc2)o1	> 30 µM	> 30 µM	> 30 µM	–
O=C(Nc1ccc(Cl)cc1)c1ncc(-c2ccccc2)o1	> 30 µM	> 30 µM	> 30 µM	–
O=C(Nc1cccc(O)c1)c1ncc(-c2ccccc2)o1	> 30 µM	> 30 µM	> 30 µM	–
O=C(c1ncc(-c2ccccc2)o1)N1CCN(c2ccccc2)CC1	> 30 µM	> 30 µM	> 30 µM	–
O=C(c1ncc(-c2ccccc2)o1)N1CCN(c2ccc(Cl)cc2)CC1	> 30 µM	> 30 µM	> 30 µM	–
O=C(Nc1ccc(O)cc1)c1ncc(-c2ccc(F)cc2)o1	> 30 µM	> 30 µM	> 30 µM	–
COc1cc2c(c(OC)c1OC)-c1ccc(OC)c(=O)cc1[C@@H](NC(C)=O)CC2 [COLCHICINE]	–	0.053 µM	–	IC50 (BEAS-2B): 0.016 µM
Cc1ccc(NC(=O)c2ncc(-c3ccccc3)o2)cc1	> 30 µM	> 30 µM	> 30 µM	–
COc1cccc(-c2cnc(C(=O)c3ccccc3)o2)c1	> 30 µM	> 30 µM	> 30 µM	–
COc1ccc(NC(=O)c2ncc(-c3ccc(O)cc3)o2)cc1	9.67 µM	11.3 µM	17.3 µM	–
COc1cc(-c2cnc(C(=O)Nc3ccc([N+](=O)[O-])cc3)o2)cc(OC)c1OC	> 30 µM	> 30 µM	> 30 µM	–
COc1cc(-c2cnc(C(=O)Nc3ccc(F)cc3)o2)cc(OC)c1OC	> 30 µM	> 30 µM	> 30 µM	–
CN(C)c1ccc(NC(=O)c2ncc(-c3ccccc3)o2)cc1	> 30 µM	> 30 µM	> 30 µM	–
COc1ccc(NC(=O)c2ncc(-c3ccccc3)o2)cc1	> 30 µM	> 30 µM	> 30 µM	–
